The values below come from publication PMC8066833 (Pharmaceuticals, 2021).

Bounds are passed on as bounds.

Data set [1] has as its system HSV-1. Put plainly: HSV-1 inactivation: virus pre-incubated with peptoid, infection of OKF6/TERT-1 cells, HSV-1 DNA by QPCR. The format is cell-based, Herpes Simplex Virus-1. As to conditions: for Activity against HSV-1 (screening, HSV-1 DNA by QPCR relative to β-actin): virus incubated with peptoid at 20 µg/mL for 2 h at 37 °C, then infection of OKF6/TERT-1 cells for 24 h.

The subject of a further data set is mammalian cells. As to conditions: cited from earlier work. An excerpt:
(§1) This effort led to the development of MXB-5 [H-Ntridec-NLys-Nspe-Nspe-NLys-NH2; see Figure 1 for structure), a peptoid with a 13-carbon N-terminal alkyl modification, that shares some structural similarities with MXB-1 [31]. […] In one in vivo experiment which has been presented orally online, mice were infected intratracheally with bioluminescent Pseudomonas aeruginosa, and were ...

A further data set concerns Pseudomonas aeruginosa. As to conditions: cited from earlier work.
Source text: as §1

In data set [2] the test system is HSV-1. Put plainly: Electron microscopy (negative staining and cryo-EM) of peptoid-treated HSV-1. As to conditions: HSV-1 treated 2 h at 37 °C; untreated controls 21% unenveloped capsids. Set-up: species or system Herpes Simplex Virus-1. As to the method:
Figure 3 Transmission electron microscope imaging of peptoid-treated HSV-1 vs. controls and comparative analysis of results. Virus was treated for 2 h at 37 °C followed by preparation for EM imaging as described in Materials and Methods. (A) Negative stained EM. (B) Cryo-EM. Visible in the control samples are the viral envelope and intact capsid (both panels). In the samples treated with the peptoids we observe both disrupted envelopes (top panels) and naked capsids (bottom panels).
HSV-1 (1 × 10^8 pfu/mL) was incubated with peptoids or control medium for 2 h. at 37 °C. After incubation, the virus was fixed by addition of 2 volumes 4% glutaraldehyde/PBS, and fixed at 4 °C for 24 h. Virus was applied to grids (ultrathin carbon with lacey support film, Ted Pella, Inc.) for 1 min, followed by staining in 1% phosphotungstic acid for 1 min. Excess liquid was blotted and grids were allowed to air dry. Images were collected using a Thermo Scientific™ Talos™ F200X at 200 kV accelerating voltage with 50 μm objective aperture inserted to enhance contrast. Images were captured using a 4k × 4k CMOS camera (Thermo Scientific, Waltham, MA, USA, Ceta 16M™).
After incubation of HSV-1 virus with peptoids for 2 h. at 37 °C, samples were vitrified using Leica EM-GP2® plunger (Leica Microsystems) as previously described on carbon holey film (R2 × 1 Quantifoil®; Micro Tools GmbH, Jena, Germany) grids. […]

For data set [3], the system named is Pseudomonas aeruginosa biofilms. As to conditions: cited from earlier work.
For the next data set, the system named is HSV-1-GFP. The experiment in a line: Fluorescence imaging of HSV-1-GFP infection. The class given is cell-based, Herpes Simplex Virus-1. As to conditions: virus treated at 20 µg/mL for 2 h; control-treated virus showed strong fluorescence.
In the next data set the test system is EpiOral cells. The class given is cell-based, human. Conditions: 3D primary oral epithelial cultures (EpiOral), apical application for 3 h, any concentration up to 256 µg/mL, n = 3 wells per concentration. As to the method: To provide further evidence to support the development of these agents as potential therapeutics, we assayed cytotoxicity against cultured cells. To provide the optimal in vitro toxicity model, we used 3-dimensional primary cultures of oral epithelial cells (EpiOral, MatTek Life Sciences, Ashland, MA, USA), grown at an air-liquid interface. The cultures were tested in the presence of increasing concentrations of MXB-4, MXB-5 and MXB-9 for 3 h, applied to the apical surface. Viability was monitored using the MTT assay. […] Incubation with 50% ethanol led to 0% viability (not shown).
Figure 6 In vitro toxicity of peptoids. Peptoids were incubated on the apical surface of cultured EpiOral cells (n = 3 wells per concentration) for 3 h. Cell viability was quantified by MTT assay and are shown as mean percent survival +/− SD. Results shown are representative of two independent replicate experiments.
Normal human bronchial epithelial cells, obtained from MatTek (EpiAirway) were grown at an air-liquid interface at 37 °C. […] Cell viability was quantified using the CyQUANT MTT Cell Viability Assay (ThermoFisher, Waltham, MA, USA), following the manufacturer’s instructions Absorbance was read at 540 nm and percent survival was calculated relative to untreated cultures. […]

The nature of data set [4]: Small Angle X-ray Scattering, self-assembly in aqueous PBS buffer. The format is physicochemical. As to conditions: unpublished data, manuscript in preparation. The source says: Comparing the structures of the ten peptoids on our new library with regard to antiviral activity, halogenation seems to be beneficial as every active compound (except MXB-5) includes at least two Nspe(p-Br) submonomers. […] This difference in activity potentially can be explained by differences in net molecular hydrophobicity upon halogen substitution as previously reported by Molchanova et al.. In this study they found an increasing antimicrobial activity correlating with increasing hydrophobicity, until a threshold was reached where the activity dropped. […] Further studies are needed to make definitive conclusions about these effects. We believe that a certain type and degree and stability of peptoid self-assemblies in aqueous media can be an important determinant of both activity, and selectivity. If assemblies remain intact near zwitterionic mammalian cells, but disassemble near anionic pathogenic membranes, they can be selective towards affecting pathogens while causing little to no harm to the host.

For data set [5] the following is noted: delivered intraperitoneally to treat a bacterial infection; cited from earlier work. An excerpt:
Peptoid 1 [H-(NLys-Nspe-Nspe)4-NH2], designated here as MXB-1, is a 12-mer with the trimer sequence motif NLys-Nspe-Nspe repeated four times (structures of the monomers are shown in Figure 1A). It is a helical peptoid with broad-spectrum activity against a variety of pathogens, including viruses as shown here; it is also active against fungi and bacterial biofilms.

In the case of “H-Ntridec-NLys-Nspe-Nspe-NLys-NH2 [MXB-5]”, the “Activity against HSV-1, dose-dependence” value in the data set with HSV-1 [1] (20 µg/mL for 2 h (5 and 20 µg/mL tested), Figure 2B) was “strong activity”. In addition, the “Incubation time at which inactivation of HSV-1 is seen (time course)” value in the data set on HSV-1 [1] (time course, Figure 2C) is given as at most 30 min. The “Activity against HSV-1 (screening, HSV-1 DNA by QPCR relative to β-actin)” value with HSV-1 [1] was “strong activity”. In addition, in the data set with mammalian cells, the “Cytotoxicity to mammalian cells relative to MXB-1” value is listed as “significantly less cytotoxic”. In the data set on Pseudomonas aeruginosa (intratracheal infection model), the “Tolerability in the lungs of the mice” value is reported as “well tolerated”. Besides, in the data set with Pseudomonas aeruginosa (mice, intratracheal infection with bioluminescent Pseudomonas aeruginosa), the “Bacterial loads compared to untreated animals” value was “significant reduction in bacterial loads”. In addition, the “Cryo-EM quantification of whole virus, disrupted envelopes and naked capsids” value in the data set on HSV-1 [2] was “large increase in both unenveloped capsids”. The “Activity against Pseudomonas aeruginosa biofilms” value in [3] is listed as “highly active”. Further, the “GFP fluorescence in cells at 24 h post-infection (viral replication)” value in the data set on HSV-1-GFP was “very weak fluorescence”. Also, the “Cytotoxicity (viability by MTT assay)” value with EpiOral cells is “no observable cytotoxicity”. Also, the “Self-assembled structure in solution (SAXS)” value in [4] is given as “stable core-shell ellipsoidal micellar structures”.

Take “LL-37: human cathelicidin AMP, natural human host defense peptide (LLGDFFRKSKEKIGKEFKRIVQRIKDFLRNLVPRTES; Antibacterial peptide LL-37; UniProt P49913 134-170, looked up) [reference compound]”: the “Activity against HSV-1 (screening, HSV-1 DNA by QPCR relative to β-actin)” value in the data set with HSV-1 [1] is “direct inactivation of HSV-1”.

Consider H-(NLys-Nspe-Nspe)4-NH2 [MXB-1], for which the “Tolerability when delivered intraperitoneally” value in data set [5] is “reasonably well tolerated”.
